Values quoted from earlier work as cited in patent US10335381B2, “Stabilized formulation of triamcinolone acetonide” (University of Mississippi, priority 2006, dated 2019).

Conditions: Gupta 1983

CC1(C)O[C@@H]2C[C@H]3[C@@H]4CCC5=CC(=O)C=C[C@]5(C)[C@@]4(F)[C@@H](O)C[C@]3(C)[C@]2(C(=O)CO)O1 [TAA, triamcinolone acetonide]
optimum pH for TAA stability in aqueous solution: about 3.4
